The values below come from US20100267002A1, “PEPTIDE HAVING LIFE-LENGTHENING EFFECT ON CELLS” (National Institute of Advanced Industrial Science and …, priority 2009, published 2010).

Assay [1] concerns HepG2 cells. The experiment in a line: HepG2 cell preservation at 4° C., survival ratio by Cellstain (Calcein-AM/PI) fluorescent double staining. It is filed as cell-based, human. Particulars: for cell survival ratio (fluorescent dye observation): HepG2, 4° C., 48 hours, peptide 10 mg/ml in Euro-Collins solution. As for the experimental part: (§1) Nfe6-, Nfe8-, and Nfe11-based confirmation of cell protecting effects and cell preserving effects was performed with the use of the HepG2 cell line (FIG. 3) derived from the human liver (purchased from Riken Cell Bank). The experiment was carried out using the HepG2 cells that had been cultured for about a week in Dulbecco's Modified Eagle's Medium (DMEM) (Sigma-Aldrich, Japan) (a culture solution) containing 10% bovine serum (FBS, Gibco) and 50 μg/ml penicillin/streptomycin (Invitrogen). FBS was inactivated by heating at 56° C. for 30 minutes and then used. Culture was conducted in a CO2 incubator (SANYO) using a flask in an atmosphere of 5% CO2 at 37° C. The HepG2 cells that had reached subconfluent conditions (i.e., conditions immediately before the container becomes filled with cells) were treated with a trypsin solution (Wako Pure Chemical Industries, Ltd.) to prepare a cell suspension. The cell suspension was sowed on a cell culture microplate, culture was conducted in a CO2 incubator (5% CO2, 37° C.) overnight, and the resultant was then used for the preservation experiment. In all the experiments described below, cells were preserved at 4° C.
The cells that had been subjected to preservation treatment for 48 hours were stained with Cellstain (Cell Double Staining Kit, available from Dojindo Laboratories), and the cells were observed under a fluorescent microscope (Olympus IX70) to evaluate the survival ratio. Cellstain (Cell Double Staining Kit) involves the use of Calcein-AM fluorescent dye, which stains viable cells, in combination with PI (Propidium iodide) fluorescent dye, which stains dead cells. […] Thereafter, the cell culture plate was mounted on a fluorescent microscope, and “viable cells stained yellow green” were observed using a fluorescence cube for GFP (excitation filter: BP460-480; dichroic mirror: DM450; absorption filter: BA460-510). Also, “dead cells stained red” were observed using a fluorescence cube for YFP (excitation filter: BP490-500; dichroic mirror: DM505; absorption filter: BA515-560).

In assay [2] the test system is HepG2 cells. The experiment in a line: HepG2 cell preservation at 4° C., survival ratio by amount of LDH released. It is filed as cell-based, human. Particulars: HepG2, 4° C., peptide 10 mg/ml in EC solution, 11 repetitions; for survival ratio based on the assay of the amount of LDH: 24 hours. How it is done: as §1
Further, the cell survival ratio after 24-hour-preservation was estimated using the LDH Cytotoxicity Detection Kit (Takara Bio Inc.). The LDH amount was measured by sowing the cell suspension prepared by the method described in (5) on a 4-well cell culture plate (Nalge Nunc International K.K.) and subjecting the resultants to the preservation experiment at 4° C. for 24 hours and for 48 hours. […] The amount of red formazan generated was evaluated by assaying the absorbance at 490 nm using a microplate reader (Sunrise Remote, Wako Pure Chemical Industries, Ltd.). In this experiment, the LDH amount when the HepG2 cells had been preserved for 24 hours using a cell preservative solution containing 1% Triton X (the A2 solution) was designated as 100% and the percentage of LDH in the experiment was determined based thereon.

The test system of assay [3] is HepG2 cells. The experiment in a line: HepG2 cell preservation at 4° C., survival ratio by WST-8 (Cell Counting Kit-8). The class given is cell-based, human. Particulars: HepG2, 4° C., 48 hours, peptide 10 mg/ml in EC solution, 11 repetitions. How it is done: as §1, with “The cell suspension was sowed on a cell culture microplate, culture was conducted in a CO2 incubator (5% CO2, 37° C.) overnight, and the resultant was then used for the preservation experiment. In all the experiments described below, cells were preserved at 4° C.” left out
[…] The amount of water-soluble formazan in the medium was evaluated by measuring the absorbance at 450 nm using a microplate reader (Sunrise Remote, Wako Pure Chemical Industries, Ltd.), and the percentage of viable cells after the cell preservation experiment was determined using the number of cells determined by adding WST-8 to the HepG2 cells before the preservation experiment as a control (100%).

Assay [4] relates to HepG2 cells. Nature of the assay: HepG2 cell preservation at 4° C., survival ratio by amount of ATP (CellTiter-Glo). The class given is cell-based, human. To be noted: HepG2, 4° C., 48 hours, peptide 10 mg/ml in EC solution, 11 repetitions. How it is done:
Nfe6-, Nfe8-, and Nfe11-based confirmation of cell protecting effects and cell preserving effects was performed with the use of the HepG2 cell line (FIG. 3) derived from the human liver (purchased from Riken Cell Bank). The experiment was carried out using the HepG2 cells that had been cultured for about a week in Dulbecco's Modified Eagle's Medium (DMEM) (Sigma-Aldrich, Japan) (a culture solution) containing 10% bovine serum (FBS, Gibco) and 50 μg/ml penicillin/streptomycin (Invitrogen). FBS was inactivated by heating at 56° C. for 30 minutes and then used. Culture was conducted in a CO2 incubator (SANYO) using a flask in an atmosphere of 5% CO2 at 37° C. […]
Since the metabolism is reduced at low temperatures, substantially no ATP is synthesized in cells. […] The ATP concentration was measured using a 96-well cell culture plate for emission measurement (Nalge Nunc International K.K.) and the HepG2 cells prepared by the method described in (5). […] ATP concentration after preservation was evaluated by adding a luminescent reagent (CellTiter-Glo, Promega) to wells and assaying the luminescent intensity using a microplate reader (Wallac 1420 ARVOsx, PerkinElmer Life Sciences, Japan). […]
For orientation: In ATP-based viability assays light output follows the ATP content of the culture.

The test system of assay [5] is fertilized eggs of Japanese Black Cattle. The experiment in a line: preservation of fertilized eggs of Japanese Black Cattle at 4° C., survival by microscopic observation. The class given is cell-based. How it is done:
The fertilized eggs of Japanese Black Cattle were subjected to the preservation experiment at 4° C. for 72 to 96 hours (3 to 4 days) using Nfe11, and the survival ratio of the fertilized eggs after preservation was assayed. At the outset, the follicle-stimulating hormones (FSH) were used to subject superovulated […] cattle to artificial insemination. Seven days thereafter, 3 to 6 fertilized eggs at the initial blastocyst stage were removed from the salpinx of the […] cattle and introduced into a straw having a diameter of 400 micrometers. In this case, Nfe11 powder samples were dissolved in a phosphate buffer (PBS) to a concentration of 5 mg/ml or 10 mg/ml, and the recovered fertilized eggs were soaked in the resulting solutions. Both ends of the straw were sealed, the resultant was allowed to stand in a refrigerator at 4° C., and the preservation experiment was carried out for 72 hours to 96 hours. Survival of the fertilized eggs after the preservation experiment was evaluated using a microscopic observation. As a result, the data as shown below were obtained.

As to “Nfe6: recombinant Nfe peptide from Zoarces elongatus Kner, SEQ ID NO: 2, no thermal hysteresis activity [reference compound]”, the “cell survival ratio (fluorescent dye observation)” value in the assay with HepG2 cells [1] is “about 40%”. Further, in the assay with HepG2 cells [2], the “survival ratio based on the assay of the amount of LDH” value is ~56%.

For the substance “Nfe11: recombinant 66-residue peptide from Zoarces elongatus Kner, amino acid sequence SEQ ID NO: 6, no thermal hysteresis activity”, in the assay with HepG2 cells [1], the “cell survival ratio (fluorescent dye observation)” value was “about 75%”. The cell protection effects result in the assay on HepG2 cells [1] (HepG2 cell lines, 10 mg/ml in Euro-Collins solution) is “sufficient cell protection effects”. Also, the “survival ratio of HepG2 cells, amount of WST-8” value in the assay with HepG2 cells [3] is reported as ~48%. Further, the “survival ratio based on the assay of the amount of LDH” value with HepG2 cells [2] was ~34%. Also, the “cell survival ratio, amount of LDH released (100 minus LDH value)” value in the assay with HepG2 cells [2] (48 hours) is ~62%. The “cell survival ratio, amount of ATP” value with HepG2 cells [4] was 60%. Besides, the “survival ratio of cattle fertilized eggs” value was found to be 67% in assay [5] (5 mg/ml in PBS, 72 hours); 50% in assay [5] (5 mg/ml in PBS, 96 hours); 50% in assay [5] (10 mg/ml in PBS, 96 hours).
